The subject of one test is HIV-1 NL4-3. The test can be described thus: Multi-round viral replication assay in SupT1-CCR5 cells, HIV-1 NL4-3. It is filed as cell-based. To be noted: Human immunodeficiency virus 1, NL43, 168 h, supernatant vRNA 7 days post-infection, mean ± SD of three independent experiments, read-out: mean EC50 against HIV-1 NL4-3. The protocol: Infectious stocks of stHIV-A19,[23] HIV-1 NL4-3, and SIVmac239 were produced in HEK-293T (RRID: CVCL_1926) cells transfected with full-length viral genome plasmids using the TransIT HEK-293 transfection reagent (Mirus Bio) according to the manufacturer’s instructions. Virus stock infectious titres were determined on TZM-bl reporter cells (RRID: CVCL_B478) as previously described.[26] For experiments using SupT1-CCR5 target cells (RRID: CVCL_X633),[27] cultures were maintained in RPMI 1640 medium supplemented with 10% foetal bovine serum (FBS), 2 mM glutamine, 100 U/ml penicillin, and 100 μg/ml streptomycin. […] Cells were then washed three times to remove input virus, counted, and cultured in triplicate in growth media containing serial threefold dilutions of LEN or no LEN (control). […] Culture supernatants were collected 7 days post-inoculation, clarified by centrifugation, and stored at −80 °C for later quantification of vRNA by quantitative reverse transcription polymerase chain reaction (qRT-PCR). […] The stHIV-A19 stock was quantified with a SYBR Green-based qPCR-based product-enhanced RT (PERT) assay using a purified reverse transcriptase (RT) protein standard, as previously described.[28] […] After 7 days, the virus in culture supernatants was quantified using the PERT assay. […]

A further test concerns SHIVs. The arrangement: method as in PMID 34875675. To be noted: SHIVs contain SIV CA derived from SIVmac239; cited from earlier work.

Results on one molecule are retold here after paper PMC10470178, “Long-acting lenacapavir protects macaques against intravenous challenge with simian-tropic HIV” (eBioMedicine, 2023).

As usually defined, the EC50 is the concentration at which the effect is half-maximal. With `CC(C)(C#Cc1ccc(-c2ccc(Cl)c3c(NS(C)(=O)=O)nn(CC(F)(F)F)c23)c([C@H](Cc2cc(F)cc(F)c2)NC(=O)Cn2nc(C(F)(F)F)c3c2C(F)(F)[C@@H]2C[C@H]32)n1)S(C)(=O)=O` [LEN, Lenacapavir], the EC50 with HIV-1 NL4-3 was 0.086 nM. Also, the “reduced sensitivity of SHIVs compared with HIV-1” value in the test on SHIVs is 5–8 fold.
